Data on one substance can be found in US7960131B2, “Functional genomic pore assay for mixed cell populations” (Wisconsin Alumni Research Foundation, priority 2003, dated 2011).

Substitutions are numbered along the chain they refer to.

For one test, the target named is T1, P2X7 wild type (Homo sapiens, UniProt Q99572).
T1 construct: expressed in transfected cells
T1 sequence (Q99572 1-595): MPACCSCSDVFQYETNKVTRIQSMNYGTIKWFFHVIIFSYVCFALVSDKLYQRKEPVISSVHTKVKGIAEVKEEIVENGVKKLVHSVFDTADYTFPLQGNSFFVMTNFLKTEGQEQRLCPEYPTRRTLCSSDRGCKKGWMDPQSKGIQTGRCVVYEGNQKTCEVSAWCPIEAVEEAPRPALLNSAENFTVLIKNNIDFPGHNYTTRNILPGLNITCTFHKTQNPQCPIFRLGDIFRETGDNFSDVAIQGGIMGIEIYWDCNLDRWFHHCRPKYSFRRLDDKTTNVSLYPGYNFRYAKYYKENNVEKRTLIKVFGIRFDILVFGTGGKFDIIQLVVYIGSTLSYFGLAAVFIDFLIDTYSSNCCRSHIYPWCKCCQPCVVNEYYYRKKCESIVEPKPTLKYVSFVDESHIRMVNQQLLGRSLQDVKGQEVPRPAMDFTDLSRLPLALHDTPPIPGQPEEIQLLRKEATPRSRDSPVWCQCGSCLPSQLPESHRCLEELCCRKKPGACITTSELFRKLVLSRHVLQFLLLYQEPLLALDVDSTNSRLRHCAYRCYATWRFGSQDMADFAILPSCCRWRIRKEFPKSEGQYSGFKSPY
The test can be described thus: YO-PRO-1 uptake fluorimetric plate assay in transfected HEK 293 cells, P2X7 wild type. The format is cell-based. As to conditions: HEK cells expressing P2X7 wild type, HEPES-buffered saline. From the text:
(§1) Recombinant Expression and Functional Characterization of Variant P2RX7 Alleles. A pcDNA3 expression vector containing a cloned human P2RX7 cDNA associated with normal pore activity was subjected to point mutagenesis using the Quick Change Kit (Stratagene Inc., city, state) to create the variants P2X7-G150R, P2X7-Q460R, and P2X7-E496A. HEK 293 cells were transfected by the Superfect liposomal method and stable populations were selected by G418 resistance. Expression of P2X7 mRNA and protein in unstimulated transfected HEK cell cultures was verified by RT-PCR and immunoblotting as previously described.
(§2) YO-PRO-1 fluorescence was measured by a Synergy-HT fluorescent plate reader (Biotek, city, state) using X±Y nm excitation and A±B emission filters.

Another test addresses T2, P2X7-E496A (Homo sapiens, UniProt Q99572, E496A).
T2 construct: expressed in transfected cells
T2 sequence (Q99572 1-595 E496A): T1 sequence (Q99572 1-595) with E496A
The test can be described thus: YO-PRO-1 uptake fluorimetric plate assay in transfected HEK 293 cells, P2X7-E496A. It counts as cell-based. As to conditions: E496A variant.
Text: as §1, §2

Turning to “2′-3′-O-(4-benzoylbenzoyl)-adenosine 5′-triphosphate [Bz-ATP]”, at P2X7 wild type, the EC50 amounted to 30 µM and the “increase of YO-PRO-1 fluorescence by Bz-ATP stimulation” value is on record as “roughly four”. Further, the “increase in YO-PRO-1 fluorescence” value at P2X7-E496A (potassium glutamate buffer) is “approximately half-maximal increase”. Moreover, the agonist-inducible pore activity result at P2X7-E496A (saline-containing buffers) is “lacking agonist-inducible pore activity”.

A word on the EC50: it is the concentration at which the effect is half-maximal.
